The values below come from patent US20250144054A1, “SMALL MOLECULE STAT3 INHIBITOR FOR TREATING TRIPLE NEGATIVE BREAST CANCER” (UNIVERSITY OF MARYLAND, BALTIMORE, priority 2022, published 2025).

One data set concerns P-STAT3 (Y705). In words: Immunofluorescence staining of P-STAT3 (Y705) localization in SUM159 cells. The data set is classed as cell-based, human. As to conditions: 8 hours, vs DMSO. How it is done: (§1) (A) The chemical structures of LLL12B and LLL12. The carbamate ester bond of LLL12B is hydrolytically cleaved by the tumor-associated plasmin to release LLL12. (B) SUM159 cells were seeded in a 6-well plate and treated with LLL12B for 8 hours. Cells were stained with Phospho-Stat3 (Tyr705) and DAPI (indicated by arrows). Green: P-STAT3 (Y705); Blue: DAPI. T47D (C) and MDA-MB-231 (D) breast cancer cells were pretreated with DMSO or LLL12B in a serum-free medium for 2 hours and stimulated with 50 ng/ml of IL-6, IFN-γ, or EGF for additional 30 minutes. Cells were collected and analyzed by Western blot. GAPDH served as a protein loading control.
Immunofluorescence staining. SUM159 cells were seeded in a 6-well plate and treated with LLL12B or DMSO for 8 hours. Cells were fixed with 4% paraformaldehyde (PFA) for 15 minutes at room temperature and then permeabilized with ice-cold 100% methanol for 10 minutes at −20° C. After blocking in 3% Bovine Serum Albumin (BSA)/0.1% Triton X-100, cells were incubated with rabbit anti-Phospho-Stat3 (Tyr705) (1:100, Cell Signaling Technology, Danvers, MA, USA) overnight at 4° C., then with secondary antibody for 1 hour at room temperature. Cells were photographed using a Leica fluorescence microscope (Leica Microsystems Inc, Deerfield, IL, USA).

For data set [1], the system named is STAT3. In words: Western blot of P-STAT3 (Y705), STAT3, Cyclin D1, Cleaved Caspase-3 in MDA-MB-231 cells. It counts as cell-based, human. The following applies: MDA-MB-231, overnight. How it is done: (A) MDA-MB-231, SUM159, and 4T1 cell lines were treated with DMSO or LLL12B overnight and the expression levels of P-STAT3 (Y705), STAT3, Cyclin D1, and Cleaved Caspase-3 were analyzed by Western blot. GAPDH served as a protein loading control. (B) MDA-MB-231 cells were treated with DMSO or C188-9 overnight and the expression levels of P-STAT3 (Y705), STAT3, Cyclin D1, and Cleaved Caspase-3 were analyzed by Western blot. (C) MDA-MB-231, SUM159, and 4T1 cells were seeded in a 96-well plate and treated with DMSO or LLL12B for 5 hours and a Caspase-3/7 Fluorescence Assay Kit was used to detect the activation of caspase-3/7. (D) MDA-MB-231, SUM159, and 4T1 cell lines were treated with DMSO or LLL12B for 8-12 hours, and flow cytometry was performed to analyze annexin V and PI staining. The quantification of apoptotic cells was shown in the right panel. ** P<0.01, *** P<0.001 and ****P<0.0001.
SiRNA and transfection. STAT3 siRNA and Negative Control siRNA (Cell Signaling Technology, Danvers, MA, USA) were used to knock down STAT3 in MDA-MB-231, SUM159, and 4T1 cell lines. Cells were transfected with STAT3 siRNA or Negative Control siRNA using Lipofectamine RNAiMAX (Invitrogen, Carlsbad, CA, USA) according to the manufacturer's instructions. After 72 hours, cell viability was examined by MTT cell viability assay, and the transfection efficiency was examined by western blot.
(§2) Western blot. Cells were collected and total protein was extracted using cell lysis buffer (Cell Signaling Technology, Danvers, MA, USA). Protein concentration was determined using the Pierce BCA Protein Assay Kit (Thermo Fisher Scientific, Waltham, MA, USA) according to the manufacturer's instructions. Equal amounts of protein were separated by 10% SDS-PAGE gels and transferred to PVDF membranes. Membranes were blocked in 5% non-fat milk at room temperature and probed with specific antibodies P-STAT3 (Y705), STAT3, Cyclin D1, Cleaved Caspase-3, P-STAT1 (Y701), STAT1, P-ERK, ERK or GAPDH (1:1000, Cell Signaling Technology, Danvers, MA, USA) at 4° C. overnight. The blots were visualized using SuperSignal™ West Femto Maximum Sensitivity Substrate (Thermo Fisher Scientific, Waltham, MA, USA) and an Amersham Imager 680 (GE Healthcare Life Sciences, Marlborough, MA, USA) after incubating with horseradish peroxidase (HRP)-conjugated anti-rabbit secondary antibody (1:5000, Cell Signaling Technology, Danvers, MA, USA).

Another data set relates to ERK. In words: EGF induced ERK phosphorylation, Western blot, MDA-MB-231 cells. It counts as cell-based, human. The following applies: pretreated 2 hours, 50 ng/ml EGF 30 minutes. The protocol:
as §1
as §2, with “The blots were visualized using SuperSignal™ West Femto Maximum Sensitivity Substrate (Thermo Fisher Scientific, Waltham, MA, USA) and an Amersham Imager 680 (GE Healthcare Life Sciences, Marlborough, MA, USA) after incubating with horseradish peroxidase (HRP)-conjugated anti-rabbit secondary antibody (1:5000, Cell Signaling Technology, Danvers, MA, USA).” left out

For data set [2] the following is noted: refs [25,28]; cited from earlier work.
For another data set, the system named is HPAC cells. Put plainly: MTT cell viability assay, HPAC cells. It counts as cell-based, human. The following applies: 3 days. The protocol: The human pancreatic cancer cell lines HPAC and PANC-1 were seeded and allowed to attach for 24 hours. Then cells were treated with different concentrations of LLL12B for 3 days and the cell viability was determined by MTT cell viability assay.

For another data set, the system named is STAT1. In words: IFN-γ induced STAT1 phosphorylation, Western blot, T47D cells. It counts as cell-based, human. As to conditions: pretreated 2 hours, 50 ng/ml IFN-γ 30 minutes. How it is done:
as §1
as §2, with “The blots were visualized using SuperSignal™ West Femto Maximum Sensitivity Substrate (Thermo Fisher Scientific, Waltham, MA, USA) and an Amersham Imager 680 (GE Healthcare Life Sciences, Marlborough, MA, USA) after incubating with horseradish peroxidase (HRP)-conjugated anti-rabbit secondary antibody (1:5000, Cell Signaling Technology, Danvers, MA, USA).” left out

A further data set concerns 4T1 cells. Put plainly: Wound healing assay, 4T1 cells. It counts as cell-based, murine. As to conditions: 4T1, vs DMSO. The protocol:
Wound healing assay. MDA-MB-231, SUM159, and 4T1 cells were seeded in a 6-well plate and cultured until fully confluent. A straight scratch crossing the monolayer was created using a 200 μl pipette tip and images of scratched areas were taken. Next, cells were treated with DMSO or LLL12B. Then, images were taken until the scratch of DMSO-treated cells was closed and the relative migration (%) was calculated.

The target in data set [3] is STAT3 (Homo sapiens, UniProt P40763). The following applies: refs [25,27,28]; cited from earlier work.
Chain of STAT3 (Homo sapiens, UniProt P40763) (P40763 whole entry, species assumed): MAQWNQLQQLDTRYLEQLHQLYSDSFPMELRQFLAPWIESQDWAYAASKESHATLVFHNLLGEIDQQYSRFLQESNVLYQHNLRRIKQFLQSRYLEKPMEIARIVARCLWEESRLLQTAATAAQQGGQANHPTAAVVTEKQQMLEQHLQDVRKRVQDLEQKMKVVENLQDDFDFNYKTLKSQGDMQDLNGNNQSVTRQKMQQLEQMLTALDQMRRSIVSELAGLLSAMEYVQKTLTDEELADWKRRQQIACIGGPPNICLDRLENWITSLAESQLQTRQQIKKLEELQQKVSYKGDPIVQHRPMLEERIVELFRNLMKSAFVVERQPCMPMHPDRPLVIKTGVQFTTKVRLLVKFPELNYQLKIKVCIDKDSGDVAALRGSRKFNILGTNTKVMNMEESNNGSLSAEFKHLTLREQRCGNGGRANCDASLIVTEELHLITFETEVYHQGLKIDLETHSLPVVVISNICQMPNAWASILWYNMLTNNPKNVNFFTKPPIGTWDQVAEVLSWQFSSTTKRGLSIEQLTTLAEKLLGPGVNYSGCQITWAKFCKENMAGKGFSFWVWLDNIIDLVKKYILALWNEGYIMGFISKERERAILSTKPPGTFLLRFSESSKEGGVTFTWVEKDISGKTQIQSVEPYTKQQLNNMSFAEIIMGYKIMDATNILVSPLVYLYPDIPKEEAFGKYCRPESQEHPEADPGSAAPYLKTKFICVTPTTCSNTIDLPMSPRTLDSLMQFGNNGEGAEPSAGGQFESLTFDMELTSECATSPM

With `CN(C)C(=O)Oc1cccc2c1C(=O)c1cccc(S(N)(=O)=O)c1C2=O` [LLL12B], the “distribution of P-STAT3 (Y705) in the nucleus” value with P-STAT3 (Y705) is on record as “blocked”. In addition, the “concentration that inhibited P-STAT3 and Cyclin D1 in Western blot” value with STAT3 [1] stood at 1 µM. Also, in the data set on STAT3 [1] (vs DMSO), the “Cyclin D1 expression” value is recorded as “decreased”, the “expression of Cleaved Caspase-3” value was “enhanced” and the “phosphorylation of STAT3” value is “decreased”. The “inhibition of P-ERK stimulated by EGF” value in the data set with ERK is on record as “little effect”. The “in vivo pharmacokinetic properties compared to LLL12” value in data set [2] was “superior”. Also, in the data set with HPAC cells, the cell viability entry was “significantly inhibits”. Moreover, in the data set on STAT1, the “induction of P-STAT1 (Y701) stimulated by IFN-γ” value is “did not inhibit”. For the same compound, the “wound closure (cell migration)” value in the data set with 4T1 cells is “effectively inhibited”. Moreover, the “binding to the pTyr705 binding site of STAT3” value on STAT3 [3] was “binds directly”.
